From ChEMBL document CHEMBL1122073, “Structure-activity relationships for 2-substituted imidazoles as alpha 2-adrenoceptor antagonists” (J Med Chem, 1982)
Where a name gives a salt, the structure may show the parent alone.

What was measured:
[1] = Tested for the 1-Octanol distribution coefficient determined by HPLC method (pH 7.4); type: physicochemical; conditions: 1-octanol/aqueous phase
[2] = biological target: T1, Adrenergic receptor alpha-2 (Rattus norvegicus, UniProt P22086+P19328+P22909); assay: Antagonistic activity against Alpha-2 adrenergic receptor in the prostatic portion of the rat vas deferens; type: functional, tissue-based
T1 sequence (P22086 whole entry): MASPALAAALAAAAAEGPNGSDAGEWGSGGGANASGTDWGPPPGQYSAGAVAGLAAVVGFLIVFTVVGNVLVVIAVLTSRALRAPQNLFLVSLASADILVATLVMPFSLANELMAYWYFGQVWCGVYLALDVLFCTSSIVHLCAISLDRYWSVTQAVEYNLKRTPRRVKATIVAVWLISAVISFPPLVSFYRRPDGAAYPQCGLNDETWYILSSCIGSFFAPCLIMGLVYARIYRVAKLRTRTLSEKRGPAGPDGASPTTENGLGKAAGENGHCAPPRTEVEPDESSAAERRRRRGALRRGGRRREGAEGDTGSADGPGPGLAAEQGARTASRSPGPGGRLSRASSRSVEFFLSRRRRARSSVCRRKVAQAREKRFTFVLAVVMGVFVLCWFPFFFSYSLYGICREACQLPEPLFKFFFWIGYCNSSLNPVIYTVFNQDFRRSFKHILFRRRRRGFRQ
T1 sequence (P19328 whole entry): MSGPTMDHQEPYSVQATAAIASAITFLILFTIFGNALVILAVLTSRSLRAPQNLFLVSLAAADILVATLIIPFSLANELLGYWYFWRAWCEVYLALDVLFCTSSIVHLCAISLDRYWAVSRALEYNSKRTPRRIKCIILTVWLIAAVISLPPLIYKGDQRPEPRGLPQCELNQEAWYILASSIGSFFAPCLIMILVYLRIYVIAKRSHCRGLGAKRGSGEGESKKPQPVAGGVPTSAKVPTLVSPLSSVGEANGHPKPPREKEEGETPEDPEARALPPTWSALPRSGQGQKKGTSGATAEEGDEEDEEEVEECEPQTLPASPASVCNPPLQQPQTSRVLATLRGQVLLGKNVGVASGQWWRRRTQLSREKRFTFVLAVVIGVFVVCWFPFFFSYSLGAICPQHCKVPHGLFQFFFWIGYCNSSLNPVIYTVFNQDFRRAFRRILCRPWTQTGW
T1 sequence (P22909 whole entry): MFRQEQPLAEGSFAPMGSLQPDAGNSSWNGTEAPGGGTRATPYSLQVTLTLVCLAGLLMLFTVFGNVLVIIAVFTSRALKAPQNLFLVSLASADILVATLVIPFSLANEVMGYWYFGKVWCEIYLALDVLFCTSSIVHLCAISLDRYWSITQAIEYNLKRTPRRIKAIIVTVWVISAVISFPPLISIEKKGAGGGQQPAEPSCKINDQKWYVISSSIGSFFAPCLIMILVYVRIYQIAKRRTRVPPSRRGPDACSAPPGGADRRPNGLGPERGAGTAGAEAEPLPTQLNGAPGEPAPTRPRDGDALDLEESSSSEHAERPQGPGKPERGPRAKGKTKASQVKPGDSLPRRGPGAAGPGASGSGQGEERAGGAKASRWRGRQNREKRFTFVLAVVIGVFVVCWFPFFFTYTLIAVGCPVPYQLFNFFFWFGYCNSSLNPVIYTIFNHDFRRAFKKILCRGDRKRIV

[3] = biological target: T2, Adrenergic receptor alpha-1 (Rattus norvegicus, UniProt P15823+P23944+P43140); assay: Antagonistic activity against Alpha-1 adrenergic receptor in the epididymal portion of the rat vas deferens; type: functional, tissue-based
T2 sequence (P15823 whole entry): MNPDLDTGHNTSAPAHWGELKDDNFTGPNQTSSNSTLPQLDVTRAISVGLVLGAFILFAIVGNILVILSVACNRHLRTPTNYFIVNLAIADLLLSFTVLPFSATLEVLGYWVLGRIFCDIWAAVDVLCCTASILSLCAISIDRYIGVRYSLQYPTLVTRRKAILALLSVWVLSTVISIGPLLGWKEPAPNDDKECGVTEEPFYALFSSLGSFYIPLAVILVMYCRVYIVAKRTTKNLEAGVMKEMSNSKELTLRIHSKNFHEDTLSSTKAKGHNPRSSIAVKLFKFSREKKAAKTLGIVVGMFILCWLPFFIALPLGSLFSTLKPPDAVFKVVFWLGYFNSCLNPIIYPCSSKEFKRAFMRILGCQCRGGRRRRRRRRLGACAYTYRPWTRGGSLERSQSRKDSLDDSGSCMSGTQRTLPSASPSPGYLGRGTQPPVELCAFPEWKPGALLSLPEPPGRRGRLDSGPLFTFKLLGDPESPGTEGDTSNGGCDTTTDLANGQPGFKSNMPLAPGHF
T2 sequence (P23944 whole entry): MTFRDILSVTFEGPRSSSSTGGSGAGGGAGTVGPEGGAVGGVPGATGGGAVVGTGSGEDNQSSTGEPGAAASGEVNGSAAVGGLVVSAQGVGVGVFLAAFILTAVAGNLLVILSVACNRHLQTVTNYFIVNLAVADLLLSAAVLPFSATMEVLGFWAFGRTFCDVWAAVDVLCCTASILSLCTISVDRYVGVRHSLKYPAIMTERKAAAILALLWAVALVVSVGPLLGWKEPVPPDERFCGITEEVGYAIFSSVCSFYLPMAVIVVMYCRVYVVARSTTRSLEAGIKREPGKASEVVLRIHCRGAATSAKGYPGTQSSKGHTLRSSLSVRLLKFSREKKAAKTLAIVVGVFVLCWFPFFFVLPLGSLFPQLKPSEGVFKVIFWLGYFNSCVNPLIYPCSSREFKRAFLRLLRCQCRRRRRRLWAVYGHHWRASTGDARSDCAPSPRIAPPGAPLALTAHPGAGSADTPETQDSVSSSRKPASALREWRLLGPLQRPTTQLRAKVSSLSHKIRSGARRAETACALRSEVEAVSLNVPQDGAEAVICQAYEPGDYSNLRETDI
T2 sequence (P43140 whole entry): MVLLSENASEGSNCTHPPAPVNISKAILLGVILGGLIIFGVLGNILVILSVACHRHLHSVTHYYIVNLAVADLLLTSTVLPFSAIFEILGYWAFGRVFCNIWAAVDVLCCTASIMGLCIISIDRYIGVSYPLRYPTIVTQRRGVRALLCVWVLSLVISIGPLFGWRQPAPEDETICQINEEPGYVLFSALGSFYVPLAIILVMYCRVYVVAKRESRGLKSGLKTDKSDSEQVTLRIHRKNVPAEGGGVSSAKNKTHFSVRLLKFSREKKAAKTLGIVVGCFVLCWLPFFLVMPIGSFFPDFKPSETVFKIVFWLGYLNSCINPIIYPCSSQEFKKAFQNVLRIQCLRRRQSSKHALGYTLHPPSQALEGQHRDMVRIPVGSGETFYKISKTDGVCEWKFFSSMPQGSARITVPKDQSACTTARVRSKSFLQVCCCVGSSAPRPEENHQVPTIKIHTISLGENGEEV

[4] = biological target: Adrenergic receptor alpha (Rattus norvegicus) (UniProt P15823+P23944+P43140+P22086+P19328+P22909); assay: Selectivity ratio is the […] of alfa2 and alfa1 adrenoceptors; type: protein assay
[5] = biological target: T2, Adrenergic receptor alpha-1; assay: […] activity against Alpha-1 adrenergic receptor in the epididymal portion of the rat vas deferens; type: functional, tissue-based

SMILES | logD [1] | pA2 [2] | pA2 [3] | Selectivity ratio [4] | pA2 [5]
CCn1ccnc1CC1COc2ccccc2O1.Cl (stereo unspecified) [IMILOXAN HYDROCHLORIDE] | 2.31 | 6.71 | < 4 |  | 
CCCn1ccnc1CC1COc2ccccc2O1 (stereo unspecified) | 2.4 |  |  |  | 
c1ccc2c(c1)OCC(C1=NCCN1)O2 (stereo unspecified) [IDAZOXAN HYDROCHLORIDE] | 0.33 |  |  |  | 
Cl.N=C(N)CC1COc2ccccc2O1 (stereo unspecified) |  | 5.4 | < 5 | > 2.5 | 
Cl.c1ccc2c(c1)OCC(c1ncc[nH]1)O2 (stereo unspecified) | 1.76 | 5.6 | < 4 | > 39.8 | 
c1ccc2c(c1)OCC(Cc1nc3ccccc3[nH]1)O2 (stereo unspecified) | 3.29 |  |  |  | 
CC(C)n1ccnc1CC1COc2ccccc2O1 (stereo unspecified) |  | 6.56 | 4.3 | 182 | 
c1ccc2c(c1)OCC(CN1CCCCC1)O2 (stereo unspecified) [PIPEROXAN] |  | 7.4 |  |  | 
Cl.c1ccc2c(c1)OCC(CCc1ncc[nH]1)O2 (stereo unspecified) | 1.99 |  | 4.2 | 102 | 
CCN1CCN=C1CC1COc2ccccc2O1.Cl (stereo unspecified) |  | 6.7 | 5 | 50.1 | 
Cl.c1ccc2c(c1)OCC(CC1=NCCN1)O2 (stereo unspecified) | 0.28 | 7 | 5 | 100 | 
Cl.c1ccc(Cn2ccnc2CC2COc3ccccc3O2)cc1 (stereo unspecified) | > 2.5 | 6.84 |  | 69.2 | 5
Cl.Cn1ccnc1CC1COc2ccccc2O1 (stereo unspecified) | 1.93 |  | 4.33 | 74.1 | 
COc1cccc(Cn2ccnc2CC2COc3ccccc3O2)c1.Cl (stereo unspecified) |  | 6.58 |  | 38 | 5
c1ccc2c(c1)OCC(Cc1ncc[nH]1)O2 (stereo unspecified) | 1.92 |  |  |  | 
Cl.c1ccc(-c2c[nH]c(CC3COc4ccccc4O3)n2)cc1 (stereo unspecified) | > 2.5 | 5.51 | < 5 | > 3.2 | 
NCC1(c2ccccc2)OCCO1 |  | 5.5 | < 5 | > 3.2 | 
Clc1cccc(Cl)c1Cn1ccnc1CC1COc2ccccc2O1 (stereo unspecified) |  | 6 | < 5 | > 10 | 
CCCCn1ccnc1CC1COc2ccccc2O1.Cl (stereo unspecified) |  | 6.84 | < 4.5 | > 219 | 
